In ChEMBL document CHEMBL1128334, “X-ray crystal structure, partitioning behavior, and molecular modeling study of piracetam-type nootropics: insights into the pharmacophore” (J Med Chem, 1995):

Assay: Partition coefficient (logP)
Type: physicochemical
Details: octanol/water

SMILES | logP
O=C1CC2C(=O)NCC2CN1 (stereo in doubt; 2) | -2.11
O=C1CC2C(=O)NCC2CN1 (stereo in doubt; 3) | -2
CCOC(=O)C1CNC(=O)CC1C(=O)OCC (stereo in doubt; 6) | -0.03
CCOC(=O)C1CNC(=O)CC1C(=O)OCC (stereo in doubt; 7) | 0.17

Same assay, conditions: octanol/water; read-out: logP

SMILES | logP
O=C1CCCCN1 | -0.47
O=C1NCC[C@@H]2CNC(=O)[C@H]12 | -1.95
O=C1CCCN1 [2-PYRROLIDONE] | -0.71
NC(=O)CN1CCCC1=O [PIRACETAM] | -1.54
O=C1CCC2CCC(=O)N12 [ROLZIRACETAM] | -1.11
